Results: US20250101042A1, “KRAS G12D MODULATING COMPOUNDS” (Gilead Sciences, Inc., priority 2023, published 2025)

Columns and labels:
[1] = target: GDP-loaded KRAS G12D (Homo sapiens, UniProt P01116, G12D); assay: KRAS G12D (GDP) Biochemical Assay (TR-FRET probe displacement); format: binding; details: 0.5 nM enzyme, 2 hours at room temperature
Method: Example A. KRAS G12D (GDP) Biochemical Assay
Compounds were tested for binding to GDP-loaded KRAS G12D in a 384-well assay format using a TR-FRET probe displacement assay in buffer consisting of 50 mM Hepes (pH 7.4), 150 mM NaCl, 5 mM MgCl2 and 0.005% Tween-20. […] Compounds were serially diluted (1:3) in DMSO. The LabCyte ECHO Acoustic dispenser system was used to pre-spot the assay plates (384-well Non-Binding Surface plates, Corning, Catalog #3824) with 50 nL of compound. The compounds were pre-incubated with 5 μL of 2× final enzyme concentration for 30 minutes before adding 5 μL of 2× final concentration of Eu-streptavidin and TR-FRET probe (10 μL final reaction volume). The plates were incubated at room temperature for 2 hours before measuring TR-FRET ratio on the Envision plate reader. IC50 values were defined as the compound concentration that causes a 50% decrease in TR-FRET ratio and were calculated using a sigmoidal dose-response model to generate curve fits.

[2] = test system: GP2D (KRAS G12D) cells; assay: 2D Cell Viability Assay (CellTiter-Glo); format: cell-based; details: 4 days, CellTiter-Glo luminescence
Method: Example B. 2D Cell Viability Assay
Compounds were tested in a 384-well format for their ability to inhibit the viability of GP2D (KRAS G12D) cells in 2D assays. Compounds were serially diluted (1:3) in DMSO. The LabCyte ECHO Acoustic dispenser system was used to pre-spot assay plates with 200 nL of test molecule per well. 1000 cells/well (40 μL volume per well) in RPMI medium with 10% FBS, and Penicillin-Streptomycin-Glutamine were plated in pre-spotted 384-well plates (Greiner, Catalog #781076) on the BioTEK EL406 liquid dispenser with a 5 μL dispensing cassette (BioTek 7170011). The plates were incubated at 37° C., 5% CO2 for 4 days before addition of CellTiter-Glo (CTG) reagent and measurement of luminescence signal. EC50 values were defined as the compound concentration that causes a 50% decrease in luminescence signal and were calculated using a sigmoidal dose-response model to generate curve fits.

Chain of GDP-loaded KRAS G12D (P01116 1-188 isoform P01116-2 G12D): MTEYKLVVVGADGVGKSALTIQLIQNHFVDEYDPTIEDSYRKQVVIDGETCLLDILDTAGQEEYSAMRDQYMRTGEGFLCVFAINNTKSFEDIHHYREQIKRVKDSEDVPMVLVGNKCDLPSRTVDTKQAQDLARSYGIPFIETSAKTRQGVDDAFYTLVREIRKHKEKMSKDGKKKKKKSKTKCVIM

| Structure (SMILES) | IC50 [1] [nM] | EC50 ([2]; GP2d, 96 h) [nM] | EC50 [2] [nM] |
| --- | --- | --- | --- |
| Cc1c(F)c(N)nc(-c2nc3c4c(nc(OC[C@@]56CCCN5C[C@H](F)C6)nc4c2F)N2C[C@H]4CC[C@H](N4)[C@H]2CCC3)c1C(F)(F)F [Example 11, 3-fluoro-6-((6aR,7S,10R)-1-fluoro-13-(((2R,7aS)-2-fluorotetrahydro-1H-pyrrolizin-7a(5H)-yl)methoxy)-5,6,6a,7,8,9,10,11-octahydro-4H-3,11a,12,14,15-pentaaza-7,10-methanocyclohepta[4,5]cycloocta[1,2,3-de]naphthalen-2-yl)-4-methyl-5-(trifluoromethyl)pyridin-2-amine] | 12 | 34 |  |
| Cc1cc(N)nc(-c2c(C)c3c4c(nc(OC[C@@]56CCCN5C[C@H](F)C6)nc4c2F)N2C[C@H]4CC[C@H](N4)[C@H]2CC3)c1C(F)(F)F [Example 10, 6-((1S,4R,14aR)-10-fluoro-8-(((2R,7aS)-2-fluorotetrahydro-1H-pyrrolizin-7a(5H)-yl)methoxy)-12-methyl-1,2,3,4,5,13,14,14a-octahydro-1,4-epiminoazepino[1′,2′:1,7]azepino[2,3,4-de]quinazolin-11-yl)-4-methyl-5-(trifluoromethyl)pyridin-2-amine] | 0.29 | 10 |  |
| Cc1cc(N)nc(-c2nc3c4c(nc(OC[C@@]56CCCN5C[C@H](F)C6)nc4c2F)N2C[C@H]4CC[C@H](N4)[C@@H]2CC3)c1C(F)(F)F [Example 4, 6-((5aS,6S,9R)-1-fluoro-12-(((2R,7aS)-2-fluorotetrahydro-1H-pyrrolizin-7a(5H)-yl)methoxy)-4,5,5a,6,7,8,9,10-octahydro-3,10a,11,13,14-pentaaza-6,9-methanonaphtho[1,8-ab]heptalen-2-yl)-4-methyl-5-(trifluoromethyl)pyridin-2-amine] | 62 | > 100 |  |
| Cc1cc(N)nc(-c2c(F)c3c4c(nc(OC[C@@]56CCCN5C[C@H](F)C6)nc4c2F)N2C[C@H]4CC[C@H](N4)[C@H]2CC3)c1C(F)(F)F (single isomer, unassigned) [Example 21] | 2 |  | 12 |
| N#Cc1c(N)sc2c(F)ccc(-c3c(F)c4c5c(nc(OC[C@@]67CCCN6C[C@H](F)C7)nc5c3F)N3C[C@H]5CC[C@H](N5)[C@H]3CC4)c12 (single isomer, unassigned) [Example 59] | 4.2 |  | 24 |
| Cc1cc(N)nc(-c2nc3c4c(nc(OC[C@@]56CCCN5C[C@H](F)C6)nc4c2F)N2C[C@H]4CC[C@H](N4)[C@@H]2[C@@H](C)C3)c1C(F)(F)F [Example 17, 6-((5S,5aS,6S,9R)-1-fluoro-12-(((2R,7aS)-2-fluorotetrahydro-1H-pyrrolizin-7a(5H)-yl)methoxy)-5-methyl-4,5,5a,6,7,8,9,10-octahydro-3,10a,11,13,14-pentaaza-6,9-methanonaphtho[1,8-ab]heptalen-2-yl)-4-methyl-5-(trifluoromethyl)pyridin-2-amine] | 6.1 | 25 |  |
| C[C@H]1Cc2c(F)c(-c3ncc(F)c4sc(N)c(C#N)c34)c(F)c3nc(OC[C@@]45CCCN4C[C@H](F)C5)nc(c23)N2C[C@H]3CC[C@H](N3)[C@H]12 (single isomer, unassigned) [Example 51] | 0.8 |  | 3.4 |
| Cc1cc(N)nc(-c2nc3c4c(nc(OC[C@@]56CCCN5C[C@H](F)C6)nc4c2F)N2C[C@H]4CC[C@H](N4)[C@H]2CC3)c1C(F)(F)F [Example 1, 6-((5aR,6S,9R)-1-fluoro-12-(((2R,7aS)-2-fluorotetrahydro-1H-pyrrolizin-7a(5H)-yl)methoxy)-4,5,5a,6,7,8,9,10-octahydro-3,10a,11,13,14-pentaaza-6,9-methanonaphtho[1,8-ab]heptalen-2-yl)-4-methyl-5-(trifluoromethyl)pyridin-2-amine] | 0.84 | 16 |  |
| N#Cc1c(N)sc2cccc(-c3c(F)c4c5c(nc(OC[C@@]67CCCN6C[C@H](F)C7)nc5c3F)N3C[C@H]5CC[C@H](N5)[C@H]3CC4)c12 [Example 25, 2-amino-4-((1S,4R,14aR)-10,12-difluoro-8-(((2R,7aS)-2-fluorotetrahydro-1H-pyrrolizin-7a(5H)-yl)methoxy)-1,2,3,4,5,13,14,14a-octahydro-1,4-epiminoazepino[1′,2′:1,7]azepino[2,3,4-de]quinazolin-11-yl)benzo[b]thiophene-3-carbonitrile] | 0.12 | 1.6 |  |
| C[C@H]1Cc2nc(-c3cccc4sc(N)c(C#N)c34)c(F)c3nc(OC[C@@]45CCCN4C[C@H](F)C5)nc(c23)N2C[C@H]3CC[C@H](N3)[C@H]12 [Example 13, 2-amino-4-((5S,5aS,6S,9R)-1-fluoro-12-(((2R,7aS)-2-fluorotetrahydro-1H-pyrrolizin-7a(5H)-yl)methoxy)-5-methyl-4,5,5a,6,7,8,9,10-octahydro-3,10a,11,13,14-pentaaza-6,9-methanonaphtho[1,8-ab]heptalen-2-yl)benzo[b]thiophene-3-carbonitrile] | 0.45 | 2 |  |
| C[C@H]1Cc2c(Cl)c(-c3cccc4sc(N)c(C#N)c34)c(F)c3nc(OC[C@@]45CCCN4C[C@H](F)C5)nc(c23)N2C[C@H]3CC[C@H](N3)[C@H]12 (atropisomer, axis not shown; (aS)) [Example 57, 2-amino-4-((1S,4R,11R,14S,14aS)-12-chloro-10-fluoro-8-(((2R,7aS)-2-fluorotetrahydro-1H-pyrrolizin-7a(5H)-yl)methoxy)-14-methyl-1,2,3,4,5,13,14,14a-octahydro-1,4-epiminoazepino[1′,2′:1,7]azepino[2,3,4-de]quinazolin-11-yl)benzo[b]thiophene-3-carbonitrile] | 0.06 | 0.94 |  |
| C#Cc1c(F)ccc2cc(N)nc(-c3c(F)c4c5c(nc(OC[C@@]67CCCN6C[C@H](F)C7)nc5c3F)N3C[C@H]5CC[C@H](N5)[C@@H]3[C@@H](C)C4)c12 (atropisomer, axis not shown; (aS)) [Example 45, 1-((1S,4R,11S,14S,14aS)-10,12-difluoro-8-(((2R,7aS)-2-fluorotetrahydro-1H-pyrrolizin-7a(5H)-yl)methoxy)-14-methyl-1,2,3,4,5,13,14,14a-octahydro-1,4-epiminoazepino[1′,2′:1,7]azepino[2,3,4-de]quinazolin-11-yl)-8-ethynyl-7-fluoroisoquinolin-3-amine] | 0.04 | 2.2 |  |
| Cc1cc(N)nc(-c2nc3c4c(nc(OC[C@@]56CCCN5C[C@H](F)C6)nc4c2F)N2C[C@H]4CC[C@H](N4)[C@H]2CCC3)c1C(F)(F)F [Example 7, 6-((6aR,7S,10R)-1-fluoro-13-(((2R,7aS)-2-fluorotetrahydro-1H-pyrrolizin-7a(5H)-yl)methoxy)-5,6,6a,7,8,9,10,11-octahydro-4H-3,11a,12,14,15-pentaaza-7,10-methanocyclohepta[4,5]cycloocta[1,2,3-de]naphthalen-2-yl)-4-methyl-5-(trifluoromethyl)pyridin-2-amine] | 0.7 | 11 |  |
| C[C@H]1Cc2c(F)c(-c3ccc(F)c4sc(N)c(C#N)c34)c(F)c3nc(OC[C@@]45CCCN4C[C@H](F)C5)nc(c23)N2C[C@H]3CC[C@H](N3)[C@H]12 (atropisomer, axis not shown; (aS)) [Example 34, (S)-2-amino-4-((1S,4R,14S,14aS)-10,12-difluoro-8-(((2R,7aS)-2-fluorotetrahydro-1H-pyrrolizin-7a(5H)-yl)methoxy)-14-methyl-1,2,3,4,5,13,14,14a-octahydro-1,4-epiminoazepino[1′,2′:1,7]azepino[2,3,4-de]quinazolin-11-yl)-7-fluorobenzo[b]thiophene-3-carbonitrile] | 0.08 | 0.5 |  |
| CCc1c(-c2nc(N)cc(C)c2C(F)(F)F)c(F)c2nc(OC[C@@]34CCCN3C[C@H](F)C4)nc3c2c1CC[C@@H]1[C@@H]2CC[C@H](CN31)N2 [Example 16, 6-((1S,4R,14aR)-12-ethyl-10-fluoro-8-(((2R,7aS)-2-fluorotetrahydro-1H-pyrrolizin-7a(5H)-yl)methoxy)-1,2,3,4,5,13,14,14a-octahydro-1,4-epiminoazepino[1′,2′:1,7]azepino[2,3,4-de]quinazolin-11-yl)-4-methyl-5-(trifluoromethyl)pyridin-2-amine] | 0.82 | 20 |  |
| C#Cc1c(F)ccc2cc(N)nc(-c3nc4c5c(nc(OC[C@@]67CCCN6C[C@H](F)C7)nc5c3F)N3C[C@H]5CC[C@H](N5)[C@H]3CCC4)c12 [Example 26, 8-ethynyl-7-fluoro-1-((6aR,7S,10R)-1-fluoro-13-(((2R,7aS)-2-fluorotetrahydro-1H-pyrrolizin-7a(5H)-yl)methoxy)-5,6,6a,7,8,9,10,11-octahydro-4H-3,11a,12,14,15-pentaaza-7,10-methanocyclohepta[4,5]cycloocta[1,2,3-de]naphthalen-2-yl)isoquinolin-3-amine] | 0.4 | 4.1 |  |
